Measured values reported in ChEMBL document CHEMBL1148983, “A diketopiperazine dimer from a marine-derived isolate of Aspergillus niger” (J Nat Prod, 2004).

Key:
[1] = Inhibition of viral IRES-mediated translation in human HeLa cells after 60 mins by luciferase reporter gene assay; type: functional, cell-based; conditions: 1 h
[2] = Inhibition of mammalian 5'-Cap- RNA dependent translation in human HeLa cells after 60 mins by luciferase reporter gene assay; type: functional, cell-based; conditions: 1 h

IC50 [1]	IC50 [2]	SMILES
> 100 µM	> 100 µM	COc1cc(C)c2c(OC)cc(=O)oc2c1-c1c(O)cc(C)c2c(OC)cc(=O)oc12 [DEMETHYLKOTANIN]
44 µM	80 µM	COc1cc(O)cc2cc3oc(C)cc(=O)c3c(O)c12
> 100 µM	> 100 µM	COc1cc(O)cc2cc(O)c3c(=O)cc(C)oc3c12
> 100 µM	> 100 µM	CC(C)C[C@H]1NC(=O)[C@H]2C[C@@]3([C@@]45C[C@@H]6C(=O)N[C@H](C(C)C)C(=O)N6[C@@H]4Nc4ccccc45)c4ccccc4N[C@H]3N2C1=O
